Experimental data from patent US10703757B2, “Compounds and methods for CDK8 modulation and indications therefor” (Plexxikon Inc., priority 2016, dated 2020).

Tested on: CDK8 (phosphorylation of STAT1 at serine 727 in A549 cells)
Assay: Cell based Phospho-STAT1 assay (IFNγ-stimulated A549 cells, AlphaLISA)
Details: Homo sapiens, A549, A549 cells, phospho-STAT1 after IFNγ stimulation
Protocol: Determine Inhibitor Activity Against CDK8 in Cell Based Phospho-STAT1 Assay
This assay measures the phosphorylation of the CDK8 substrate STAT1 following Interferon-gamma (IFNγ) stimulation^1. The lung carcinoma cell line A549 is seeded in a 96 well plate in 50 μL of culture media at 5×10^4 cells/well and incubated at 37° C. overnight. Serial dilutions of compounds (in total volume of 50 μL culture media) are added to the cells and incubated at 37° C. for one hour. Human IFNγ (R&D Systems) is added to the cells at a 10 ng/mL final concentration. 4 wells containing DMSO treated cells stimulated with IFNγ serve as high controls and 4 wells containing DMSO treated unstimulated cells serve as low controls. After 30 minute IFNγ stimulation at 37° C., the culture media is removed and 50 μL of 1×AlphaLISA lysis buffer (PerkinElmer GA, USA) is added to each well. 5 μL cell lysate is transferred to a 384 well AlphaPlate (PerkinElmer GA, USA) and 5 μL containing 0.156 nM Phospho-STAT1 (Ser727) rabbit monoclonal antibody (Cell Signaling Technology), 0.156 nM Mouse Anti-STAT1 antibody (BD Transduction Laboratories), and 10 μg/mL Anti-rabbit IgG AlphaLISA acceptor beads (PerkinElmer GA, USA) diluted in 1× AlphaLISA immunoassay buffer (PerkinElmer GA, USA) is added to the cell lysates and incubated at room temperature for 90 minutes. 5 μL Anti-Mouse IgG Alpha donor beads diluted in 1× AlphaLISA immunoassay buffer (PerkinElmer GA, USA) is added to the reaction mixture and incubated at room temperature for 90 minutes. Upon excitation of these beads with laser light at 680 nm, singlet oxygen is produced. This singlet oxygen is rapidly quenched, unless the AlphaLISA Anti-Rabbit IgG acceptor beads are in close proximity, in which case a proximity signal can be measured at […]. In the presence of cellular CDK8 catalytic activity, there is a very strong proximity signal. Selective CDK8 inhibitors affect a decrease in this proximity signal through a decrease in phosphorylation of STAT1 at serine 727. The percentage inhibition at individual concentrations relative to high and low controls is calculated. The data are analyzed by using nonlinear regression to generate IC50 values.

Row | Compound | IC50 [µM]
1 | Cn1ncc2cc(-c3cnn4cccc(N5CCC(C)(C#N)CC5)c34)ccc21 [Compound P-0403, 4-methyl-1-(3-(1-methyl-1H-indazol-5-yl)pyrazolo[1,5-a]pyridin-4-yl)piperidine-4-carbonitrile] | 0.0001 to 0.1
2 | Cn1cc(-c2ccc(-c3cnc4cccc(N5CCC(C(N)=O)CC5)n34)cc2)cn1 [Compound P-0400, 1-(3-(4-(1-methyl-1H-pyrazol-4-yl)phenyl)imidazo[1,2-a]pyridin-5-yl)piperidine-4-carboxamide] | 0.1 to 1
3 | CC(C)(C)OC(=O)N1CCC(Oc2cccc3ncc(-c4ccc(-c5cnn(C(F)F)c5)cc4)n23)CC1 [Compound P-0306, tert-butyl 4-((3-(4-(1-(difluoromethyl)-1H-pyrazol-4-yl)phenyl)imidazo[1,2-a]pyridin-5-yl)oxy)piperidine-1-carboxylate] | 1 to 10
4 | Cn1cc(-c2ccc(-c3cnn4cccc(C5CCC(C#N)CC5)c34)cc2)cn1 (centres unmarked) [Compound P-0347, 4-(3-(4-(1-methyl-1H-pyrazol-4-yl)phenyl)pyrazolo[1,5-a]pyridin-4-yl)cyclohexane-1-carbonitrile] | 0.1 to 1
5 | Cc1nn(C)c2ccc(-c3cnc4[nH]ccc4c3C3=CCC(C#N)CC3)cc12 (centres unmarked) [Compound P-0342, 4-(5-(1,3-dimethyl-1H-indazol-5-yl)-1H-pyrrolo[2,3-b]pyridin-4-yl)cyclohex-3-ene-1-carbonitrile] | 0.0001 to 0.1
6 | Cn1ncc2cc(-c3cnc4[nH]ccc4c3C3=CCC(C(N)=O)CC3)ccc21 (centres unmarked) [Compound P-0335, 4-(5-(1-methyl-1H-indazol-5-yl)-1H-pyrrolo[2,3-b]pyridin-4-yl)cyclohex-3-ene-1-carboxamide] | 0.0001 to 0.1
7 | Cn1cc(-c2ccc(-c3cnn4cccc(-c5cnn(C(=O)OC(C)(C)C)c5)c34)cc2)cn1 [Compound P-0431, tert-butyl 4-(3-(4-(1-methyl-1H-pyrazol-4-yl)phenyl)pyrazolo[1,5-a]pyridin-4-yl)-1H-pyrazole-1-carboxylate] | 1 to 10
8 | Cn1ncc2cc(-c3cnc4cccc(N5CCC(C#N)CC5)n34)ccc21 [Compound P-0361, 1-(3-(1-methyl-1H-indazol-5-yl)imidazo[1,2-a]pyridin-5-yl)piperidine-4-carbonitrile] | 0.0001 to 0.1
9 | FC(F)n1cc(-c2ccc(-c3cnc4cccc(OC5CCSCC5)n34)cc2)cn1 [Compound P-0348, 3-(4-(1-(difluoromethyl)-1H-pyrazol-4-yl)phenyl)-5-((tetrahydro-2H-thiopyran-4-yl)oxy)imidazo[1,2-a]pyridine] | 1 to 10
10 | Cn1cc(-c2ccc(-c3cnn4cccc(N5CCC(C#N)CC5)c34)cc2)cn1 [Compound P-0422, 1-(3-(4-(1-methyl-1H-pyrazol-4-yl)phenyl)pyrazolo[1,5-a]pyridin-4-yl)piperidine-4-carbonitrile] | 0.0001 to 0.1
11 | Cn1cc(-c2ccc(-c3cnn4cccc(-c5cn[nH]c5)c34)cc2)cn1 [Compound P-0430, 3-(4-(1-methyl-1H-pyrazol-4-yl)phenyl)-4-(1H-pyrazol-4-yl)pyrazolo[1,5-a]pyridine] | 1 to 10
12 | Cn1ncc2cc(-c3cnc4[nH]ccc4c3NCC(C)(C)C#N)ccc21 [Compound P-0336, 2,2-dimethyl-3-((5-(1-methyl-1H-indazol-5-yl)-1H-pyrrolo[2,3-b]pyridin-4-yl)amino)propanenitrile] | 0.1 to 1

Results, then the compound that gave them:

Row | IC50 [µM] | Compound
13 | 0.0001 to 0.1 | Cn1cc(-c2ccc(-c3cnn4cccc(C#CC5(O)COC5)c34)cc2)cn1 [Compound P-0368, 3-((3-(4-(1-methyl-1H-pyrazol-4-yl)phenyl)pyrazolo[1,5-a]pyridin-4-yl)ethynyl)oxetan-3-ol]
14 | 0.1 to 1 | CC(C)(O)C#Cc1cccn2ncc(-c3ccc(OCCN4CCCCC4)cc3)c12 [Compound P-0406, 2-methyl-4-(3-(4-(2-(piperidin-1-yl)ethoxy)phenyl)pyrazolo[1,5-a]pyridin-4-yl)but-3-yn-2-ol]
15 | 0.0001 to 0.1 | Cn1ncc2cc(-c3cnc4cccc(C5=CCC(C#N)CC5)n34)ccc21 (centres unmarked) [Compound P-0367, 4-(3-(1-methyl-1H-indazol-5-yl)imidazo[1,2-a]pyridin-5-yl)cyclohex-3-ene-1-carbonitrile]
16 | 1 to 10 | Cn1cc(-c2ccc(-c3cnc4cccc(N5CCCCC5)n34)cc2)cn1 [Compound P-0381, 3-(4-(1-methyl-1H-pyrazol-4-yl)phenyl)-5-(piperidin-1-yl)imidazo[1,2-a]pyridine]
17 | 0.1 to 1 | N#CC1CCC(c2cccn3ncc(-c4ccc(-c5cnn(C(F)F)c5)cc4)c23)CC1 (centres unmarked) [Compound P-0346, 4-(3-(4-(1-(difluoromethyl)-1H-pyrazol-4-yl)phenyl)pyrazolo[1,5-a]pyridin-4-yl)cyclohexane-1-carbonitrile]
18 | 1 to 10 | Cc1noc(C)c1-c1ccc(-c2cnn3cccc(C#CC(C)(C)O)c23)cc1 [Compound P-0227, 4-(3-(4-(3,5-dimethylisoxazol-4-yl)phenyl)pyrazolo[1,5-a]pyridin-4-yl)-2-methylbut-3-yn-2-ol]
19 | 0.1 to 1 | Cn1ncc2ccc(-c3cnn4cccc(N5CCC(C#N)(c6ccccn6)CC5)c34)cc21 [Compound P-0352, 1-(3-(1-methyl-1H-indazol-6-yl)pyrazolo[1,5-a]pyridin-4-yl)-4-(pyridin-2-yl)piperidine-4-carbonitrile]
20 | 0.0001 to 0.1 | Cn1cc(-c2ccc(-c3cnn4cccc(C#CC(O)c5ccccc5)c34)cc2)cn1 (centres unmarked) [Compound P-0426, 3-[3-[4-(1-methylpyrazol-4-yl)phenyl]pyrazolo[1,5-a]pyridin-4-yl]-1-phenyl-prop-2-yn-1-ol]
21 | 1 to 10 | CNC(=O)N1CCC(Oc2cccc3ncc(-c4ccc(-c5cnn(C(F)F)c5)cc4)n23)CC1 [Compound P-0292, 4-((3-(4-(1-(difluoromethyl)-1H-pyrazol-4-yl)phenyl)imidazo[1,2-a]pyridin-5-yl)oxy)-N-methylpiperidine-1-carboxamide]
22 | 0.1 to 1 | CNC(=O)C1CC=C(c2cccc3ncc(-c4ccc(-c5cnn(C)c5)cc4)n23)CC1 (centres unmarked) [Compound P-0417, N-methyl-4-(3-(4-(1-methyl-1H-pyrazol-4-yl)phenyl)imidazo[1,2-a]pyridin-5-yl)cyclohex-3-ene-1-carboxamide]
23 | 0.1 to 1 | O=S1(=O)CCC(Oc2cccc3ncc(-c4ccc(-c5cnn(C(F)F)c5)cc4)n23)CC1 [Compound P-0349, 4-((3-(4-(1-(difluoromethyl)-1H-pyrazol-4-yl)phenyl)imidazo[1,2-a]pyradin-5-yl)oxy)tetrahydro-2H-thiopyran 1,1-dioxide]
24 | 0.1 to 1 | Cn1cc(-c2ccc(-c3cnc4cccc(NC5CCOCC5)n34)cc2)cn1 [Compound P-0388, 3-(4-(1-methyl-1H-pyrazol-4-yl)phenyl)-N-(tetrahydro-2H-pyran-4-yl)imidazo[1,2-a]pyridin-5-amine]
25 | 0.1 to 1 | COC(=O)N1CCC(Oc2cccc3ncc(-c4ccc(-c5cnn(C(F)F)c5)cc4)n23)CC1 [Compound P-0291, methyl 4-((3-(4-(1-(difluoromethyl)-1H-pyrazol-4-yl)phenyl)imidazo[1,2-a]pyridin-5-yl)oxy)piperidine-1-carboxylate]
26 | 0.0001 to 0.1 | CN1CCC(Oc2cccc3ncc(-c4ccc(-c5cnn(C)c5)cc4)n23)CC1 [Compound P-0439, 3-(4-(1-methyl-1H-pyrazol-4-yl)phenyl)-5-((1-methylpiperidin-4-yl)oxy)imidazo[1,2-a]pyridine]
